Test results published in PubChem BioAssay AID1963968 (Molecular Pharmacology Branch, DTP, NCI, 2024).

System: 945468-187-T-J3-PDC spheroids with HUVEC/MSC, viability
Assay: Anticancer human tumor 945468-187-T-J3-PDC patient-derived rectal carcinoma cell line growth inhibition [PI3K]
Conditions: for IC50: curve of first compound; for viability, T/C: stronger effect = lower value
Text: Combinatorial screen of targeted agents with the PI3K inhibitors inavolisib, alpelisib, duvelisib, and copanlisib in multi-cell type tumor spheroids
A high-throughput screen of multi-cell type tumor spheroids was designed to identify active combinations of targeted small molecules and PI3K pathway inhibitors. Complex spheroids include a stromal component modeled by human endothelial cells (HUVEC) and fibroblasts modeled by human mesenchymal stem cells (MSCs). The concentration ranges selected for each drug and investigational agent were based upon clinically achievable concentrations if the clinical Cmax of the agent was known.
Compounds. The drugs and investigational agents: inavolisib (NSC800729), alpelisib (NSC765974), duvelisib (NSC772469), copanlisib (NSC816437), ipatasertib (NSC767898), afuresertib (NSC778305), talazoparib (NSC767125), sapanisertib (NSC764658), selumetinib (NSC741078), tovorafenib (DAY101, NSC766906), vemurafenib (NSC761431), ravoxertinib (NSC781343), sotorasib (NSC818433), MRTX1133 (NSC 836407), abemaciclib (NSC 768073), palbociclib (NSC758247), venetoclax (NSC 766270), SY5609 (NSC837396), enzalutamide (NSC755605), and darolutamide (NSC825331), were obtained from the National Cancer Institute (NCI) Developmental Therapeutics Program Chemical Repository. The FDA-approved anticancer drug set is available from the NCI Developmental Therapeutics Program. […] The stock solutions were prepared in dimethyl sulfoxide (DMSO, Sigma-Aldrich, St. Louis, MO, cat. D2650) at 800-fold the tested concentration and stored at -70 degrees C prior to their use. All drugs and investigational agents were tested over a range starting from a high concentration at or near the clinical Cmax and decreasing in half-log increments. If the clinical Cmax for an agent had not been determined, the highest concentration tested was 10 microM.
Cell Culture. All cells were maintained in an incubator at 37 degrees C and 5% CO2 with 95% humidity. The PDC lines were cultured according to standard operating procedures established by the NCI PDMR (https://pdmr.cancer.gov/sops/default.htm). All PDCs were thawed and cultured in Matrigel-coated flasks prepared with a working solution of 1X Ham's F-12 nutrient mix, without supplementation (Invitrogen, Waltham, MA, cat. 11765054), 100 U/mL penicillin-streptomycin (Invitrogen, cat. 15140122), and 2.5% Matrigel (Corning Inc., Corning, NY, cat. 354248) for the first three passages. The 354836-022-R-J1-PDC, 475296-252-R-J1-PDC, and 997726-040-R-J2-PDC lines were cultured in 6A media, which includes advanced DMEM/F-12 (Thermo Fisher Scientific, cat. 12634028), 10 mM HEPES (Thermo Fisher Scientific, cat. 15630080), 1X GlutaMAX supplement (Thermo Fisher Scientific, cat. 35050061), 0.1 mg/mL primocin (InvivoGen, San Diego, CA, cat. ant-pm-2), 10% defined fetal bovine serum, heat inactivated (HyClone Laboratories Inc., Logan, UT, cat. SH30070.03HI), 50% L-WRN conditioned media (ATCC, cat. CRL-3276), 1.25 mM N-Acetyl-L-cysteine (Sigma-Aldrich, cat. A9165), 10 mM nicotinamide (Sigma-Aldrich, cat. N0636), 1X B-27 supplement (Thermo Fisher Scientific, cat. 17504044), 1X N-2 supplement (Thermo Fisher Scientific, cat. 17502048), and 10 microM Y-27632 dihydrochloride (Tocris Bioscience, Bristol, United Kingdom, cat. 1254). The 624824-186-R-J2-PDC line was cultured in 6C/Colon 1B media, which includes all 6A media components plus 50 ng/mL human EGF recombinant protein (Thermo Fisher Scientific, cat. PHG0311). […]

[1] = second compound 0.00316 µM, first compound 0.000316 µM
[2] = second compound 0.00316 µM, first compound 0.001 µM
[3] = second compound 0.00316 µM, first compound 0.00316 µM
[4] = second compound 0.00316 µM, first compound 0.01 µM
[5] = second compound 0.00316 µM, first compound 0.0316 µM
[6] = second compound 0.00316 µM, first compound 0.1 µM
[7] = second compound 0.01 µM, first compound 0.000316 µM
[8] = second compound 0.01 µM, first compound 0.001 µM
[9] = second compound 0.01 µM, first compound 0.00316 µM
[10] = second compound 0.01 µM, first compound 0.01 µM
[11] = second compound 0.01 µM, first compound 0.0316 µM
[12] = second compound 0.01 µM, first compound 0.1 µM
[13] = second compound 0.0316 µM, first compound 0.000316 µM
[14] = second compound 0.0316 µM, first compound 0.001 µM
[15] = second compound 0.0316 µM, first compound 0.00316 µM
[16] = second compound 0.0316 µM, first compound 0.01 µM
[17] = second compound 0.0316 µM, first compound 0.0316 µM
[18] = second compound 0.0316 µM, first compound 0.1 µM
[19] = second compound 0.1 µM, first compound 0.000316 µM
[20] = second compound 0.1 µM, first compound 0.001 µM
[21] = second compound 0.1 µM, first compound 0.00316 µM
[22] = second compound 0.1 µM, first compound 0.01 µM
[23] = second compound 0.1 µM, first compound 0.0316 µM
[24] = second compound 0.1 µM, first compound 0.1 µM
[25] = second compound 0.316 µM, first compound 0.000316 µM
[26] = second compound 0.316 µM, first compound 0.001 µM
[27] = second compound 0.316 µM, first compound 0.00316 µM
[28] = second compound 0.316 µM, first compound 0.01 µM
[29] = second compound 0.316 µM, first compound 0.0316 µM
[30] = second compound 0.316 µM, first compound 0.1 µM
[31] = second compound 1 µM, first compound 0.000316 µM
[32] = second compound 1 µM, first compound 0.001 µM
[33] = second compound 1 µM, first compound 0.00316 µM
[34] = second compound 1 µM, first compound 0.01 µM
[35] = second compound 1 µM, first compound 0.0316 µM
[36] = second compound 1 µM, first compound 0.1 µM
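Also: spheroids exposed to agents for 7 days before viability read.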
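For viability, T/C in this document: 100% = DMSO vehicle control viability.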

With `CC(=O)c1c(C)c2cnc(Nc3ccc(N4CCNCC4)cn3)nc2n(C2CCCC2)c1=O` + CC(Nc1ccc2c(c1)OCCn1cc(N3C(=O)OCC3C(F)F)nc1-2)C(N)=O the IC50 (second compound 0.00316 µM) was > 100 nM, the IC50 (second compound 0.01 µM) was > 100 nM and the IC50 (second compound 0.0316 µM) was > 100 nM. The IC50 (second compound 0.1 µM) was > 100 nM, the IC50 (second compound 0.316 µM) was > 100 nM and the IC50 (second compound 1 µM) was 77.5 nM. For the same compound, the viability, T/C [1] was 90.5%, the viability, T/C [2] was 100% and the viability, T/C [3] was 94.9%. It also gave a viability, T/C [4] of 99.2%, a viability, T/C [5] of 108% and a viability, T/C [6] of 110%. It also gave a viability, T/C [7] of 97.6%, a viability, T/C [8] of 104% and a viability, T/C [9] of 101%. For the same compound, the viability, T/C [10] was 110%, the viability, T/C [11] was 109% and the viability, T/C [12] was 103%. For the same compound, the viability, T/C [13] was 108%, the viability, T/C [14] was 104% and the viability, T/C [15] was 92.8%. It also gave a viability, T/C [16] of 116%, a viability, T/C [17] of 101% and a viability, T/C [18] of 123%. The viability, T/C [19] was 110%, the viability, T/C [20] was 111% and the viability, T/C [21] was 104%. It also gave a viability, T/C [22] of 118%, a viability, T/C [23] of 115% and a viability, T/C [24] of 119%. The viability, T/C [25] was 118%, the viability, T/C [26] was 100% and the viability, T/C [27] was 90.1%. The viability, T/C [28] was 101%, the viability, T/C [29] was 104% and the viability, T/C [30] was 81.5%. For the same compound, the viability, T/C [31] was 83.1%, the viability, T/C [32] was 67.9% and the viability, T/C [33] was 64.7%. The viability, T/C [34] was 80.6%, the viability, T/C [35] was 74.8% and the viability, T/C [36] was 43.2%.
In the case of `CC(C)n1nc(-c2ccc3oc(N)nc3c2)c2c(N)ncnc21` + CC(Nc1ccc2c(c1)OCCn1cc(N3C(=O)OCC3C(F)F)nc1-2)C(N)=O, the IC50 (second compound 0.00316 µM) is reported as > 100 nM, the IC50 (second compound 0.01 µM) is reported as > 100 nM and the IC50 (second compound 0.0316 µM) is reported as 93.1 nM. It also gave an IC50 (second compound 0.1 µM) of 73.8 nM, an IC50 (second compound 0.316 µM) of 27.4 nM and an IC50 (second compound 1 µM) of 5.19 nM. It also gave a viability, T/C [1] of 111%, a viability, T/C [2] of 104% and a viability, T/C [3] of 109%. It also gave a viability, T/C [4] of 116%, a viability, T/C [5] of 118% and a viability, T/C [6] of 71%. It also gave a viability, T/C [7] of 102%, a viability, T/C [8] of 105% and a viability, T/C [9] of 98.1%. It also gave a viability, T/C [10] of 111%, a viability, T/C [11] of 123% and a viability, T/C [12] of 63.4%. For the same compound, the viability, T/C [13] was 99.1%, the viability, T/C [14] was 94.5% and the viability, T/C [15] was 129%. For the same compound, the viability, T/C [16] was 110%, the viability, T/C [17] was 114% and the viability, T/C [18] was 46%. The viability, T/C [19] was 102%, the viability, T/C [20] was 107% and the viability, T/C [21] was 104%. For the same compound, the viability, T/C [22] was 126%, the viability, T/C [23] was 87.2% and the viability, T/C [24] was 36.7%. The viability, T/C [25] was 103%, the viability, T/C [26] was 104% and the viability, T/C [27] was 91%. It also gave a viability, T/C [28] of 77.8%, a viability, T/C [29] of 45.2% and a viability, T/C [30] of 24.9%. The viability, T/C [31] was 65.7%, the viability, T/C [32] was 64.9% and the viability, T/C [33] was 60.3%. The viability, T/C [34] was 36.3%, the viability, T/C [35] was 34.9% and the viability, T/C [36] was 29.8%.
`CCCS(=O)(=O)Nc1ccc(F)c(C(=O)c2c[nH]c3ncc(-c4ccc(Cl)cc4)cc23)c1F` + CC(Nc1ccc2c(c1)OCCn1cc(N3C(=O)OCC3C(F)F)nc1-2)C(N)=O showed an IC50 (second compound 0.00316 µM) of 6240 nM, an IC50 (second compound 0.01 µM) of 6400 nM and an IC50 (second compound 0.0316 µM) of 6620 nM. The IC50 (second compound 0.1 µM) was 7150 nM, the IC50 (second compound 0.316 µM) was 6370 nM and the IC50 (second compound 1 µM) was 3270 nM. The viability, T/C [5] was 105%, the viability, T/C [6] was 96.9% and the viability, T/C (second compound 0.00316 µM, first compound 0.316 µM) was 93%. For the same compound, the viability, T/C (second compound 0.00316 µM, first compound 1 µM) was 104%, the viability, T/C (second compound 0.00316 µM, first compound 3.16 µM) was 97.1% and the viability, T/C (second compound 0.00316 µM, first compound 10 µM) was 17.3%. The viability, T/C [11] was 105%, the viability, T/C [12] was 88.7% and the viability, T/C (second compound 0.01 µM, first compound 0.316 µM) was 104%. The viability, T/C (second compound 0.01 µM, first compound 1 µM) was 102%, the viability, T/C (second compound 0.01 µM, first compound 3.16 µM) was 110% and the viability, T/C (second compound 0.01 µM, first compound 10 µM) was 17.3%. The viability, T/C [17] was 98.5%, the viability, T/C [18] was 108% and the viability, T/C (second compound 0.0316 µM, first compound 0.316 µM) was 97.7%. The viability, T/C (second compound 0.0316 µM, first compound 1 µM) was 94.3%, the viability, T/C (second compound 0.0316 µM, first compound 3.16 µM) was 100% and the viability, T/C (second compound 0.0316 µM, first compound 10 µM) was 22.2%. It also gave a viability, T/C [23] of 101%, a viability, T/C [24] of 102% and a viability, T/C (second compound 0.1 µM, first compound 0.316 µM) of 104%. It also gave a viability, T/C (second compound 0.1 µM, first compound 1 µM) of 99.7%, a viability, T/C (second compound 0.1 µM, first compound 3.16 µM) of 121% and a viability, T/C (second compound 0.1 µM, first compound 10 µM) of 27%. It also gave a viability, T/C [29] of 98.7%, a viability, T/C [30] of 108% and a viability, T/C (second compound 0.316 µM, first compound 0.316 µM) of 98.5%. It also gave a viability, T/C (second compound 0.316 µM, first compound 1 µM) of 114%, a viability, T/C (second compound 0.316 µM, first compound 3.16 µM) of 97.6% and a viability, T/C (second compound 0.316 µM, first compound 10 µM) of 18.9%. It also gave a viability, T/C [35] of 66%, a viability, T/C [36] of 66.6% and a viability, T/C (second compound 1 µM, first compound 0.316 µM) of 74.9%. It also gave a viability, T/C (second compound 1 µM, first compound 1 µM) of 69.4%, a viability, T/C (second compound 1 µM, first compound 3.16 µM) of 51.1% and a viability, T/C (second compound 1 µM, first compound 10 µM) of 13.9%.
